Test system: EpidermFT™ Skin Model (EFT-400) full thickness skin cultures
Assay: Affymetrix GeneChip HG U133 Plus 2.0 microarray global gene expression, agent-exposed vs untreated skin cultures
Format: cell-based, human
Conditions: 0.5% vs untreated, 24 hr; down

In the case of `OCc1ccccc1O[C@@H]1O[C@H](CO)[C@@H](O)[C@H](O)[C@H]1O` [Salicin, 2-(Hydroxymethyl)phenyl β-D-glucospyranoside], the “Fold change ABHD12 (228124_at)” value is reported as 3.821, the “Fold change ACAD8 (221669_s_at)” value is reported as 3.404 and the “Fold change ACOX1 (209600_s_at)” value is reported as 3.361. For the same molecule, the “Fold change ACOX1 (213501_at)” value was 3.854, the “Fold change ACOX1 (227962_at)” value was 3.737 and the “Fold change ADAP2 (222876_s_at)” value was 3.579. The “Fold change AGPAT9 (224480_s_at)” value was 3.106, the “Fold change AHNAK2 (1558378_a_at)” value was 3.138 and the “Fold change AKTIP (223894_s_at)” value was 3.08. The “Fold change ALDH3A2 (210544_s_at)” value was 3.633, the “Fold change ALDH3B2 (204941_s_at)” value was 3.429 and the “Fold change ALOX15B (206714_at)” value was 3.512. For the same molecule, the “Fold change ANKFN1 (1553211_at)” value was 3.62, the “Fold change ANKRD35 (231118_at)” value was 3.392 and the “Fold change ANKRD57 (219496_at)” value was 3.699. The “Fold change APOBEC3B (206632_s_at)” value was 3.0369, the “Fold change AQP3 (39248_at)” value was 3.579 and the “Fold change ARHGEF5 (204765_at)” value was 3.689. The “Fold change ARL4A (205020_s_at)” value was 3.913, the “Fold change ARL5A (218150_at)” value was 3.293 and the “Fold change ARL5A (226617_at)” value was 3.1. For the same molecule, the “Fold change ASPHD2 (227015_at)” value was 3.321, the “Fold change BCL11A (210347_s_at)” value was 3.112 and the “Fold change BEND5 (219670_at)” value was 3.381. The “Fold change BEX2 (224367_at)” value was 3.212, the “Fold change BTBD16 (1552566_at)” value was 3.232 and the “Fold change C1orf106 (219010_at)” value was 3.744. For the same molecule, the “Fold change C1orf161 (1553333_at)” value was 3.474, the “Fold change C2orf54 (220149_at)” value was 3.333 and the “Fold change C4orf32 (227856_at)” value was 3.328. The “Fold change C10orf57 /// C10orf58 (224435_at)” value was 3.829, the “Fold change C10orf99 (227735_s_at)” value was 3.719 and the “Fold change C19orf33 (223631_s_at)” value was 3.241. The “Fold change C20orf74 (232500_at)” value was 3.366, the “Fold change CA2 (209301_at)” value was 3.433 and the “Fold change CAMK1D (235626_at)” value was 3.726. The “Fold change CARD10 (210026_s_at)” value was 3.475, the “Fold change CCNB1 (228729_at)” value was 3.349 and the “Fold change CD9 (201005_at)” value was 3.444. The “Fold change CDH3 (203256_at)” value was 3.506, the “Fold change CDKN2B (236313_at)” value was 3.737 and the “Fold change CDS1 (226187_at)” value was 3.08. For the same molecule, the “Fold change CGN (223232_s_at)” value was 3.873, the “Fold change CHAC2 (235117_at)” value was 3.55 and the “Fold change CHD7 (218829_s_at)” value was 3.089. The “Fold change CLDN4 (201428_at)” value was 3.454, the “Fold change CLTB (205172_x_at)” value was 3.663 and the “Fold change CLTB (211043_s_at)” value was 3.446. For the same molecule, the “Fold change COBLL1 (215393_s_at)” value was 3.301, the “Fold change COL17A1 (204636_at)” value was 3.576 and the “Fold change CPEB3 (205773_at)” value was 3.876. The “Fold change CTA-221G9.4 /// LOC100131004 (225525_at)” value was 3.401, the “Fold change CYP2R1 (227109_at)” value was 3.716 and the “Fold change CYP27C1 (1568868_at)” value was 3.64. The “Fold change D4S234E (209569_x_at)” value was 3.313, the “Fold change D4S234E (209570_s_at)” value was 3.871 and the “Fold change DAAM1 (216060_s_at)” value was 3.84. The “Fold change DAAM1 (226666_at)” value was 3.519, the “Fold change DAPL1 (229290_at)” value was 3.089 and the “Fold change DGAT2 (224327_s_at)” value was 3.427. For the same molecule, the “Fold change DGAT2 (226064_s_at)” value was 3.883, the “Fold change DHRS1 (213279_at)” value was 3.907 and the “Fold change DHRS11 (218756_s_at)” value was 3.13. For the same molecule, the “Fold change DLX3 (231778_at)” value was 3.089, the “Fold change DOCK8 (225502_at)” value was 3.608 and the “Fold change DUOX1 (219597_s_at)” value was 3.516. For the same molecule, the “Fold change DUOXA1 (1554648_a_at)” value was 3.865, the “Fold change EBP (213787_s_at)” value was 3.0355 and the “Fold change EFNA5 (214036_at)” value was 3.139. For the same molecule, the “Fold change EGR1 (201693_s_at)” value was 3.681, the “Fold change EGR2 (205249_at)” value was 3.497 and the “Fold change ELOVL6 (204256_at)” value was 3.121. The “Fold change ELOVL6 (210868_s_at)” value was 3.441, the “Fold change ENC1 (201340_s_at)” value was 3.246 and the “Fold change EPB41L4A (228256_s_at)” value was 3.298. The “Fold change EPHA4 (229374_at)” value was 3.101, the “Fold change EPN3 (223895_s_at)” value was 3.929 and the “Fold change F3 (204363_at)” value was 3.192. The “Fold change F11R (222354_at)” value was 3.541, the “Fold change FA2H (219429_at)” value was 3.37 and the “Fold change FABP7 (205029_s_at)” value was 3.263. The “Fold change FABP7 (205030_at)” value was 3.804, the “Fold change FAM63A (221856_s_at)” value was 3.1 and the “Fold change FAM72A /// FAM72B /// GCUD2 (225834_at)” value was 3.211. The “Fold change FAM83B (1563900_at)” value was 3.497, the “Fold change FAM83D (225687_at)” value was 3.895 and the “Fold change FAM83H (226129_at)” value was 3.739. For the same molecule, the “Fold change FAM84B (225864_at)” value was 3.566, the “Fold change FAM169A (235048_at)” value was 3.759 and the “Fold change FBXO3 (218432_at)” value was 3.446. The “Fold change FCHSD1 (226698_at)” value was 3.141, the “Fold change FERMT1 (218796_at)” value was 3.784 and the “Fold change FGFBP1 (205014_at)” value was 3.406. For the same molecule, the “Fold change FIGN (239710_at)” value was 3.472, the “Fold change FLNB (208614_s_at)” value was 3.765 and the “Fold change FLVCR2 (219316_s_at)” value was 3.532. For the same molecule, the “Fold change FLVCR2 (222866_s_at)” value was 3.373, the “Fold change FMO5 (205776_at)” value was 3.223 and the “Fold change FOXE1 (206912_at)” value was 3.121. For the same molecule, the “Fold change FXYD3 (202489_s_at)” value was 3.827, the “Fold change GAB1 (229114_at)” value was 3.301 and the “Fold change GFOD1 (219821_s_at)” value was 3.679. For the same molecule, the “Fold change GGT6 (236225_at)” value was 3.426, the “Fold change GJB6 (231771_at)” value was 3.289 and the “Fold change GM2A (35820_at)” value was 3.763. The “Fold change GM2A (212737_at)” value was 3.6714, the “Fold change GM2A (235678_at)” value was 3.427 and the “Fold change GPR37 (209631_s_at)” value was 3.265. The “Fold change GPR126 (213094_at)” value was 3.256, the “Fold change GPT2 (224839_s_at)” value was 3.555 and the “Fold change GRHL1 (222830_at)” value was 3.044. For the same molecule, the “Fold change GSTA4 (235405_at)” value was 3.3 and the “Fold change H19 (224646_x_at)” value was 3.532.
